Experimental data reported in patent US20230310573A1, “Stabilized Vaccine Compositions” (priority 2020, published 2023).

Tests used:
[1] = molecular target: T1, RSV pre-fusion F protein of SEQ ID NO: 10 (Human respiratory syncytial virus A, UniProt P03420, D486N/DEL108-136/I379V/M447V/N67I/P102A/S215P); format: physicochemical; conditions: for trimer % after slow freeze with compound vs without: all formulation buffers (AP1, FB12, formulation 1 and 2); for aggregation after slow freeze: formulation 5b (pH 8.3) and 5a (pH 7.0)
T1 construct: made in house
Experimental: The RSV pre-fusion F protein of SEQ ID NO: 10 was diluted to 0.3 mg/ml in phosphate buffer (Formulation 1) and 0.75 ml was filled in glass injection vials with rubber stopper and sealed with aluminum caps. Additionally, protein was diluted in the formulation buffers with inhibitor in a 1:3 trimer:compound ratio. One inhibitor binds one trimer so with a 1:3 ratio there is an excess of inhibitor. […] In 24 hours, samples were cooled down from RT to −70° C. Samples were thawed to RT and analyzed by analytical Size Exclusion Chromatography (SEC) to measure loss of RSV F trimer.
0.75 ml of each formulation was filled in glass injection vials with rubber stopper and sealed with aluminum caps. Additionally, protein was diluted in the formulation buffers and inhibitor was added in a 1:1, 1:3, 1:9, 1:27 and 1:50 trimer: compound ratio. Final compound concentrations were 1.7×10^−6 M, 5.2×10^−6 M, 1.6×10^−5M, 4.6×10^−5, and 8.6×10^−5 M, respectively. Vials were slowly frozen to −70° C. in 24 hours. Samples were subsequently thawed to RT and analyzed by analytical Size Exclusion Chromatography (SEC) to measure loss of RSV F trimer compared the sample that was kept at 4° C.

[2] = molecular target: T2, RSV pre-fusion F (preF) protein of SEQ ID NO: 10 (Human respiratory syncytial virus A, UniProt P03420, D486N/DEL108-136/I379V/M447V/N67I/P102A/S215P); format: physicochemical; conditions: with compound 1:3 trimer:compound in sample and UF/DF buffer; formulation 2 without PS20; two weeks after UF/DF
T2 construct: made in house
Experimental: The UF/DF was performed with and without compound. […] A kDa filter in the UF/DF (Cogent μscale TFF system (Merck Millipore, Burlington, MA)) was used and a diavolume of 350 ml UF/DF buffer was used.
After the UF/DF the hydrodynamic diameters were measured by Dynamic Light Scattering (DLS) UNcle from vendor Unchained Labs (Pleasanton, CA, US) two weeks after the UF/DF.

HIV-1 ConB-SOSIP Env = HIV-1 ConB-SOSIP Env (Human immunodeficiency virus type 1 group M subtype B, UniProt P04578, A336T/A346V/A501C/A612T/D137T/D187N/D632E/D99N/DEL145-146/DEL310-311/DEL356-356/DEL401-405/DUP460-460/E409T/E464T/E509R/E620D/E630Q/F175L/F396S/G167D/G321D/H625N/H643Y/I148K/I181V/I182V/I320G/I360V/I467T/I559P/I580V/INS134N/INS317Y/INS395N/INS508RR/K130N/K135N/K192R/K322I/K362N/K429E/K510R/L518M/M147E/M326I/M535I/N230D/N325D/N624D/N636D/Q621E/R306S/R308H/S128T/S162T/S347K/S387T/S398G/S411N/S440R/S461N/S465T/S640G/S644T/T140N/T188N/T194I/T232K/T290E/T31A/T373M/T605C/T626M/V275E/V318A/V87E); assay: Thermostability of HIV-1 ConB-SOSIP Env by nanoDSF; format: physicochemical; conditions: 50-fold molar excess of inhibitor; Env 0.8 mg/ml; DMSO 1.95% v/v
HIV Env ConB SOSIP = molecular target: T3, HIV Env ConB SOSIP (Human immunodeficiency virus type 1 group M subtype B, UniProt P04578, A336T/A346V/A501C/A612T/D137T/D187N/D632E/D99N/DEL145-146/DEL310-311/DEL356-356/DEL401-405/DUP460-460/E409T/E464T/E509R/E620D/E630Q/F175L/F396S/G167D/G321D/H625N/H643Y/I148K/I181V/I182V/I320G/I360V/I467T/I559P/I580V/INS134N/INS317Y/INS395N/INS508RR/K130N/K135N/K192R/K322I/K362N/K429E/K510R/L518M/M147E/M326I/M535I/N230D/N325D/N624D/N636D/Q621E/R306S/R308H/S128T/S162T/S347K/S387T/S398G/S411N/S440R/S461N/S465T/S640G/S644T/T140N/T188N/T194I/T232K/T290E/T31A/T373M/T605C/T626M/V275E/V318A/V87E); assay: Storage stability of ConB-SOSIP Env, antigenicity by AlphaLISA (bNAbs / non-bNAbs); format: binding, HIV-1; conditions: 1 week at 4° C., 50-fold excess
T3 construct: made in house; host or cells: HEK293F
Experimental: HIV env trimer was incubated in Citrate buffer (20 mM Citrate. 75 mM NaCl 5% Sucrose, 0.03% Tween-80 pH 6.0) at 0.8 mg/ml for 1 week at 4° C. with or without inhibitor. Entry inhibitor XVII was added in a 50-fold excess to the purified Env ConB SOSIP. As the inhibitor was dissolved in DMSO, the control sample with only Env contained the same concentration of DMSO (1.95% v/v) as the Env with the inhibitor. The quality of HIV Env can be evaluated with broadly neutralizing antibodies (bNAbs) that bind the closed, native pre-fusion conformation of Env, versus non-broadly neutralizing antibodies (non-bNAbs) which recognize non natively folded Envs (Rutten et. al., Cell Reports 18). […] Preferential binding to bNAbs was higher and binding to all five tested non-bNAbs, except for 447-52D, was decreased for the composition that contained the inhibitor.

Structure (SMILES) | trimer % after slow freeze with compound vs without [1] | aggregation after slow freeze [1] | trimer signal lost after slow freeze/thaw (analytical SEC) ([1]; phosphate buffer (Formulation 1), preF 0.3 mg/ml, 1:3 trimer:compound, RT to −70° C. in 24 hours) | hydrodynamic diameter (DLS) after UF/DF [2] [nm] | increase of melting temperature of Env (nanoDSF) (HIV-1 ConB-SOSIP Env) [°C] | binding to bNAbs vs Env without inhibitor (HIV Env ConB SOSIP) | binding to five tested non-bNAbs, except for 447-52D, vs Env without inhibitor (HIV Env ConB SOSIP) | quality of HIV Env by antigenicity (AlphaLISA) vs Env without inhibitor (HIV Env ConB SOSIP; Citrate buffer pH 6.0)
CS(=O)(=O)CCCn1c(Cn2c(=O)n(C3CC3)c3ccncc32)nc2cc(Cl)ccc21 [Compound II, 3-[[5-chloro-1-(3-methylsulfonylpropyl)benzimidazol-2-yl]methyl]-1-cyclopropyl-imidazo[4,5-c]pyridin-2-one] | higher trimer % | no aggregations were observed | 2.4+/−1.9% |  |  |  |  | 
CS(=O)(=O)CCCn1c(Cn2c(=O)n(CC(F)(F)F)c3ccncc32)cc2cc(Cl)ccc21 [Compound IV, 3-[[5-chloro-1-(3-methylsulfonylpropyl)indol-2-yl]methyl]-1-(2,2,2-trifluoroethyl)imidazo[4,5-c]pyridin-2-one] | higher trimer % | no aggregations were observed |  | 8.65 |  |  |  | 
COc1ccnc2[nH]cc(C(=O)C(=O)N3CCN(C(=O)c4ccccc4)C[C@H]3C)c12 [XVII, 1-[(2R)-4-benzoyl-2-methyl-piperazin-1-yl]-2-(4-methoxy-1H-pyrrolo[2,3-b]pyridin-3-yl)ethane-1,2-dione] |  |  |  |  | ~5 | higher | decreased | superior
